Patent US6825348B2, “Antiviral compounds” (Academia Sinica, priority 2002, dated 2004)
In brackets after ≈: the same amount, converted by molar mass. Read-outs that look alike come from different tables or passages of the source.

Tests used:
[1] = target: T1, calf mucosal adenosine deaminase (ADA, EC 3.5.4.4) (Bos taurus, UniProt P56658); experiment: Substrate activity and competitive inhibition of adenosine deaminase; assay type: biochemical; conditions: for type of ADA inhibition in words: ara-A used as substrate; for rel. Vmax: compound as ADA substrate, relative to ara A 3 = 1.0; for Ki: inhibition of ADA with ara-A 3 as substrate
T1 sequence (P56658 1-363): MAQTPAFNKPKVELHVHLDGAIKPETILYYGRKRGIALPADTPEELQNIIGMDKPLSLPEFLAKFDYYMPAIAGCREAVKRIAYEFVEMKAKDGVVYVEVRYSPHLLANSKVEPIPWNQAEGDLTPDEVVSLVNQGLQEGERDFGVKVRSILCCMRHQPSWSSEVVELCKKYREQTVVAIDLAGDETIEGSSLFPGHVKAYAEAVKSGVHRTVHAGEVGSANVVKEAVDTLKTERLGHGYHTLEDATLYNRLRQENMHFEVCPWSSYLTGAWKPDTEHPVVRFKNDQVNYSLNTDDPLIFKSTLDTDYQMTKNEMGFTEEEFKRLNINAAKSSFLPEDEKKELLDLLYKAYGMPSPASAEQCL

HSV thymidine kinase = HSV thymidine kinase (Human herpesvirus 1, UniProt P0DTH5); experiment: Phosphorylation of nucleosides by HSV thymidine kinase; assay type: biochemical
[2] = system: Vero cell thymidine kinase; experiment: Phosphorylation of nucleosides by Vero cell thymidine kinase; assay type: biochemical; conditions: for Km: apparent Km, 37° C., pH 7.5; for rel. Vmax, Vero cell thymidine kinase: relative to thymidine = 1.0 × 10^2
[3] = system: herpes simplex type 1 virus (HSV-1) (KOS); experiment: Inhibition of HSV-1 cytopathogenicity in Vero cell culture; assay type: cell-based; conditions: Human alphaherpesvirus 1, Vero, read-out: IC50 HSV-1 (KOS)
[4] = system: thymidine kinase-positive (TK+) varicella-zoster virus (YS); experiment: Inhibition of TK+ VZV cytopathogenicity in Vero cell culture; assay type: cell-based
[5] = system: thymidine kinase-deficient (TK−) varicella-zoster virus (YS/R); experiment: microbe, parasite or virus in culture; assay type: cell-based; conditions: Human alphaherpesvirus 3, Vero, read-out: IC50 TK−VZV (YS/R)
[6] = system: human cytomegalovirus (AD-169); experiment: Inhibition of HCMV cytopathogenicity in Vero cell culture; assay type: cell-based; conditions: Human betaherpesvirus 5, AD169; Vero cell culture; 50% inhibition of cytopathogenicity; for 1:1 mixtures IC50 refers to known antiviral drugs; read-out: IC50 HCMV (AD-169)
HeLa cells = conditions: human
Vero cells = conditions: African green monkey
[7] = Lipophilicity, 1-octanol/water partition coefficient; conditions: 1-octanol/water (0.10 M phosphate buffer)
[8] = Solubility in water (phosphate buffer, UV absorbance); conditions: phosphate buffer, pH 6.8, aqueous buffer, thermodynamic from solid
HSV-1 (KOS) = experiment: Anti-HSV-1 activity in vivo, HSV-1-induced mortality in NMRI mice; conditions: 6 days; for mean day of animal death / mean day of symptom initiation: terminated day 21; for responders at 100 mg/kg / responders at 150 mg/kg / responders at 250 mg/kg: Human alphaherpesvirus 1, ip, 504 h; for protection against HSV-induced mortality: 150 mg/kg dose level i.p.
[9] = LD50 and toxicity in mice, intraperitoneal
HIV-1 (IIIB) = experiment: microbe, parasite or virus in culture; assay type: cell-based; conditions: Human immunodeficiency virus 1, IIIB; MT4 cells, average of duplicates; read-out: IC50 HIV-1 (IIIB)
HIV-2 (LAV-2) = experiment: Inhibition of HIV-2 cytopathogenicity in MT4 cells; assay type: cell-based, human immunodeficiency virus; conditions: Human immunodeficiency virus 2; MT4 cells, average of duplicates; read-out: IC50 HIV-2 (LAV-2)
[10] = system: moloney murine sarcoma virus (MSV); experiment: Inhibition of MSV cytopathogenicity in CEM cells (cell-protection assay); assay type: cell-based; conditions: Moloney murine sarcoma virus, CCRF-CEM; CEM cells, average of duplicates; read-out: IC50 MSV
MT4 cells = experiment: Toxicity toward MT4 cells
CEM cells = experiment: Toxicity toward CEM cells
[11] = mixture with acyclovir 2 (w/w=1:1)
[12] = 100 mg/kg/day i.p., read-out: percentage of HSV-1-infected mice alive at day 21 postinfection
[13] = 100 mg/kg/day i.p., read-out: percentage of HSV-1-infected mice without symptoms at day 21 postinfection
[14] = 150 mg/kg/day i.p., read-out: percentage of HSV-1-infected mice alive at day 21 postinfection
[15] = 150 mg/kg/day i.p., read-out: percentage of HSV-1-infected mice without symptoms at day 21 postinfection
[16] = 250 mg/kg/day i.p., read-out: percentage of HSV-1-infected mice alive at day 21 postinfection
[17] = 250 mg/kg/day i.p., read-out: percentage of HSV-1-infected mice without symptoms at day 21 postinfection

Chain of HSV thymidine kinase (P0DTH5 whole entry, looked up): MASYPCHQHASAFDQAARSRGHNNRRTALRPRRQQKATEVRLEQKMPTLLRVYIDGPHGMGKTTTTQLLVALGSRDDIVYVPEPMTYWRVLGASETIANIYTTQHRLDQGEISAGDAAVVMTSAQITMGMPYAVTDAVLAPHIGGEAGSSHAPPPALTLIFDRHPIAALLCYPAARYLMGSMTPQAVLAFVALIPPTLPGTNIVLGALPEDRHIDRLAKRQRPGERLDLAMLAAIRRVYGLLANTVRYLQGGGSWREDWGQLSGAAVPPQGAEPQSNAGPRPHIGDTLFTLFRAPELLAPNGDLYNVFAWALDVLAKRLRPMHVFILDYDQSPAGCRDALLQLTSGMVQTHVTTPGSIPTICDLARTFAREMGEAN

| SMILES | rel. Vmax, HSV thymidine kinase (HSV thymidine kinase) | Km [2] [mM] | rel. Vmax, Vero cell thymidine kinase [2] | IC50 [3] [µg/mL] | IC50 TK+VZV (YS) [4] [µg/mL] | IC50 [5] [µg/mL] | IC50 [6] [µg/mL] | HeLa cell, concentration causing microscopically visible change or disruption in about 50% of the cell sheet (HeLa cells) [µg/mL] | Vero cell, concentration causing microscopically visible change or disruption in about 50% of the cell sheet (Vero cells) [µg/mL] | logP at […] [7] | solubility at 20 h [8] [µg/mL] | mean day of animal death (HSV-1 (KOS); 100 mg/kg/day i.p.) [days] | mean day of symptom initiation (HSV-1 (KOS); 100 mg/kg/day i.p.) [days] | mean day of animal death (HSV-1 (KOS); 150 mg/kg/day i.p.) [days] | mean day of symptom initiation (HSV-1 (KOS); 150 mg/kg/day i.p.) [days] | mean day of animal death (HSV-1 (KOS); 250 mg/kg/day i.p.) [days] | mean day of symptom initiation (HSV-1 (KOS); 250 mg/kg/day i.p.) [days] | responders at 100 mg/kg (HSV-1 (KOS); [12]) [%] | responders at 100 mg/kg (HSV-1 (KOS); [13]) [%] | responders at 150 mg/kg (HSV-1 (KOS); [14]) [%] | further results |
| --- | --- | --- | --- | --- | --- | --- | --- | --- | --- | --- | --- | --- | --- | --- | --- | --- | --- | --- | --- | --- | --- |
| Nc1ncnc2c1ncn2COCCO [Compound 1, 9-[(2-Hydroxyethoxy)methyl]adenine, reference compound] | <3.0 | > 30 | <3.0 | 4.5 (≈ 21.5 µM) | 7.0 (≈ 33.5 µM) | 9 (≈ 43 µM) | 4.8 (≈ 22.9 µM) | 196 | 209 | 0.98 | 2560 (≈ 12200 µM) |  |  |  |  |  |  |  |  |  | ADA substrate / inhibitor property in words [1]: functioned as ADA substrates; type of ADA inhibition in words [1]: competitive inhibition; rel. Vmax [1]: 1.48 × 10^−2; Ki [1]: 141 µM; effect on the rate of phosphorylation of acyclovir 2 in words (HSV thymidine kinase; [11]): did not induce any increase |
| Nc1nc2ncn(COCCO)c2c(=O)[nH]1 [Compound 9, 7-[(2-Hydroxyethoxy)methyl]guanine] | 28.0 | 0.0183 | 12.0 | 1.1 (≈ 4.88 µM) | 13 (≈ 57.7 µM) | 38 (≈ 169 µM) | 16 (≈ 71 µM) | 114 | 99 | -0.6 | 320 (≈ 1420 µM) | 14.1 ± 0.8 | 10.9 ± 0.6 | 16.0 ± 1.5 | 13.0 ± 1.1 | 18.5 ± 1.0 | 15.1 ± 1.2 | 66 | 48 | 78 | responders at 150 mg/kg (HSV-1 (KOS); [15]): 57%; responders at 250 mg/kg (HSV-1 (KOS); [16]): 90%; responders at 250 mg/kg (HSV-1 (KOS); [17]): 67% |
| Nc1ncnc2ncn(COCCO)c12 [Compound 14, 7-[(2-Hydroxyethoxy)methyl]adenine] | <3.0 | > 30 | <3.0 | 0.58 (≈ 2.77 µM) | 1.1 (≈ 5.26 µM) | 0.97 (≈ 4.64 µM) | 1 (≈ 4.78 µM) | 472 | 496 | 1.24 | 4710 (≈ 22500 µM) | 19.8 ± 1.7 | 17.5 ± 2.1 | >21 | 19.9 ± 1.3 | >21 | >21 | 95 | 80 | 100 | ADA substrate / inhibitor property in words [1]: functioned as ADA substrates; type of ADA inhibition in words [1]: competitive inhibition; rel. Vmax [1]: 1.50 × 10^−6; Ki [1]: 8.3 µM; increase on the rate of phosphorylation of acyclovir 2 by HSV thymidine kinase (HSV thymidine kinase; [11]): 2 fold; protection against HSV-induced mortality (HSV-1 (KOS)): full protection; responders at 150 mg/kg (HSV-1 (KOS); [15]): 88%; responders at 250 mg/kg (HSV-1 (KOS); [16]): 100%; responders at 250 mg/kg (HSV-1 (KOS); [17]): 100%; LD50 ([9]; NMRI, mouse, in vivo, ip): 950 mg/kg; level up to which no toxicity was shown ([9]; mice, intraperitoneal): 400 mg/kg |
| Nc1nc2c(ncn2CCOCP(=O)(O)O)c(=O)[nH]1 [PMEG 27, 9-[2-(phosphonomethoxy)ethyl]guanine, reference compound] |  |  |  | 4.6 (≈ 15.9 µM) | 0.040 (≈ 0.138 µM) | 0.06 (≈ 0.207 µM) | 0.35 (≈ 1.21 µM) | 9.1 | 7.0 | 0.14 | 360 (≈ 1240 µM) |  |  |  |  |  |  |  |  |  | IC50 (HIV-1 (IIIB)): 16 µg/mL (≈ 55.3 µM); IC50 (HIV-2 (LAV-2)): 18 µg/mL (≈ 62.2 µM); IC50 [10]: 0.19 µg/mL (≈ 0.657 µM); MT4 cell, concentration reducing the number of viable uninfected cells by 50% (MT4 cells): 16 µg/mL; CEM cell, concentration reducing the number of viable uninfected cells by 50% (CEM cells): 12 µg/mL |
| Nc1nc2c(ncn2COCCO)c(=O)[nH]1 [acyclovir 2, 9-[(2-hydroxyethoxy)methyl]guanine, reference compound] | 39.2 | 22 | <3.0 | 0.46 (≈ 2.04 µM) |  |  | 32 (≈ 142 µM) | 259 | 269 | -0.48 | 400 (≈ 1780 µM) | 18.9 ± 2.1 | 15.6 ± 1.6 | >21 | 19.1 ± 1.3 | >21 | >21 | 80 | 65 | 100 | protection against HSV-induced mortality (HSV-1 (KOS)): full protection; responders at 150 mg/kg (HSV-1 (KOS); [15]): 86%; responders at 250 mg/kg (HSV-1 (KOS); [16]): 100%; responders at 250 mg/kg (HSV-1 (KOS); [17]): 100% |
| Cc1cn([C@H]2C[C@H](O)[C@@H](CO)O2)c(=O)[nH]c1=O [thymidine] |  | 0.001 | 1.0 × 10^2 |  |  |  |  |  |  |  |  |  |  |  |  |  |  |  |  |  |  |
